Assay [1] deals with Dunkin-Hartley guinea pigs. Nature of the assay: Effect on the guinea pig cough model (ATP or histamine plus citric acid induced cough). The format is in vivo. To be noted: oral administration 30 minutes to 1 hour before inducing cough, 250 uM ATP or 0.6 mM histamine then 0.5 M citric acid nebulized, FIG. 1 to FIG. 3 (doses 5.1-92 mg/kg). As for the experimental part: In this test, dextromethorphan (purchased from Shanghai Send Pharmaceutical Technology Co., Ltd.) was used as a positive control compound. A clinical control compound having the following structure was employed, and it was prepared according to the method described in WO 2008/040652 A1:
Test animals were 300-350 g Dunkin-Hartley guinea pigs (purchased from Shanghai Jiagan Biotechnology Co., Ltd). After being purchased and adaptively fed for one week, the animals were randomly divided into groups based on body weight, each test group comprising 10-15 test animals The vehicle (a 0.5% CMCNa solution), the test compounds, the positive control compound (dextromethorphan) or the clinical control compound were orally administrated (compounds at test dosages were respectively added to a 0.5% CMCNa solution, uniformly dispersed through thorough ultrasonic treatment; the solution was vortex mixed again before administration to each animal, and the test dosage ranged from 1 mg/kg to 100 mg/kg). Administration was performed 30 minutes to 1 hour before inducing cough.
Method of inducing cough: test animals were put in a body pneumotachograph (Buxco) and allowed to stand for several minutes. […] Starting from the nebulization of citric acid, the number of coughs of the animals in 10 minutes were recorded by employing a small animal pulmonary function detector (Buxco).

Assay [2] deals with T1, P2X3 (Homo sapiens, UniProt P56373).
T1 construct: expressed in transfected cells; host or cells: 1321N1 cells, stably transfected
T1 sequence (P56373 1-397): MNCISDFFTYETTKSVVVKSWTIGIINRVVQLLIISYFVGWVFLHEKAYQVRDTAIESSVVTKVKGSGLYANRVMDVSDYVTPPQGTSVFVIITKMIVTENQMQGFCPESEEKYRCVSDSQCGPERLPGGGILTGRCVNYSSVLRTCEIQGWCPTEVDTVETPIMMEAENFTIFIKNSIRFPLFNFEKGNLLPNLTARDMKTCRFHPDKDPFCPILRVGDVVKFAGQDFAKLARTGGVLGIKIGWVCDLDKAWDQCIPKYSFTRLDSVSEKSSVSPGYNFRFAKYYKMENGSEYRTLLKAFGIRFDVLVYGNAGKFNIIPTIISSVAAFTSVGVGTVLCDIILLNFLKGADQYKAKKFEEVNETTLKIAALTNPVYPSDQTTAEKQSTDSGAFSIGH
Nature of the assay: Inhibition on the P2X3-mediated current in 1321N1 cell line stably transfected with P2X3 (whole-cell patch clamp). To be noted: 1321N1 P2X3 stable transfected cells, clamping potential -60 mV, 5 minutes pre-treatment, Hill equation fit; read-out: IC50, inhibition of P2X3-mediated current induced by 10 μM Na2ATP. The format is cell-based. As for the experimental part:
Membrane current was recorded by employing HEKA EPC-10 patch clamp amplifier and PATCHMASTER acquisition system. 1321N1 P2X3 stable transfected cells were transferred to an about 1 ml bath embedded in an inverted microscope platform, and an extracellular fluid (2 mM CaCl2, 1 mM MgCl2, 5 mM KCl, 155 mM NaCl, 12 mM glucose and 10 mM HEPES (pH=7.4)) was perfused by using a gravitational perfusion system. The P2X3-mediated current of a single cell was recorded in a whole cell recording mode. After formation of a gigaseal and rapture of the membrane, clamping potential was set at −60 mV. 10 μM Na2ATP was perfused for 5 seconds, and the P2X3-mediated current induced at this point was taken as a control current. The cells were then treated with a solution of compound 66 at a specific concentration (prepared with the extracellular fluid) for 5 minutes. The solution of compound 66 at this concentration and 10 μM Na2ATP were co-applied to induce a cell current (see FIG. 4 for the effect of the compound on the current), and an inhibition rate relative to the control current was calculated according to the following formula:
(§1) Inhibition Rate Relative to the Control Current=(1−I2/I1)*100%
(§2) wherein I1 represents the control current, and I2 represents the current after application of compound 66. […]

Assay [3] has as its target T2, P2X3 (Rattus norvegicus, UniProt P49654).
T2 construct: The primary cells of rat DRG were transferred; endogenous in cells; host or cells: primary rat dorsal root ganglion cells, cultured ex vivo
T2 sequence (P49654 1-397): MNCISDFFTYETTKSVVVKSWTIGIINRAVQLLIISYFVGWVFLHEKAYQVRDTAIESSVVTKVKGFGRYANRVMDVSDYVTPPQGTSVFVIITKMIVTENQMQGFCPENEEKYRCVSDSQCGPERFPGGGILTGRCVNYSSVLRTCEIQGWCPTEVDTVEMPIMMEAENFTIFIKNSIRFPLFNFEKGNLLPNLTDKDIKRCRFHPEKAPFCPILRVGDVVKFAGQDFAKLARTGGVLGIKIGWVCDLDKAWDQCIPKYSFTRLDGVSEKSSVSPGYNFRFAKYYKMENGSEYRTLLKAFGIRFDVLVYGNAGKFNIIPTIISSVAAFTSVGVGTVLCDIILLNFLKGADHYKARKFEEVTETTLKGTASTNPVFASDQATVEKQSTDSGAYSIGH
Description: Inhibition on the P2X3-mediated current in ex vivo cultured rat dorsal root ganglion (whole-cell patch clamp). The format is cell-based. To be noted: primary cells of rat DRG, clamping potential -60 mV, 5 minutes pre-treatment, Hill equation fit; read-out: IC50, inhibition of P2X3-mediated current induced by 30 μM a,b-Me ATP. As for the experimental part:
Membrane current was recorded by employing HEKA EPC-10 patch clamp amplifier and PATCHMASTER acquisition system. The primary cells of rat DRG were transferred to an about 1 ml bath embedded in an inverted microscope platform, and an extracellular fluid (2 mM CaCl2, 1 mM MgCl2, […] KCl, 155 mM NaCl, 12 mM glucose and 10 mM HEPES (pH=7.4)) was perfused by using a gravitational perfusion system. The P2X3-mediated current of a single cell was recorded in a whole cell recording mode. After formation of a gigaseal and rapture of the membrane, clamping potential was set at −60 mV. 30 μM a,b-Me ATP (also known as “α,β-meATP”) was perfused for 5 seconds, and the P2X3-mediated current induced at this point was taken as a control current. The cells were then treated with a solution of compound 66 at a specific concentration (prepared with the extracellular fluid) for 5 minutes. The solution of compound 66 at this concentration and 30 μM a,b-Me ATP were co-applied to induce a cell current (see FIG. 6 for the effect of the compound on the current), and an inhibition rate relative to the control current was calculated according to the following formula:
as §1, §2
On the technique in general: The patch-clamp technique gives a direct electrical read-out from membranes.

This note sets out measurements from patent US20220211703A1, “METHOD FOR TREATING COUGH BY USING DIAMINOPYRIMIDINE COMPOUND” (BEIJING TIDE PHARMACEUTICAL CO., LTD., priority 2019, published 2022).

Regarding `CNc1cc(Oc2cnc(N)nc2N)c(C(C)C)cn1` [Compound 22], the “antitussive effect (number of coughs in 10 minutes)” value in assay [1] is given as “significant antitussive effect, which was better than that of the clinical control compound”.
Broadly, the IC50 is the concentration at which inhibition is half-maximal. `C#Cc1cc(Oc2cnc(N)nc2N)c(C(C)C)cn1` [Compound 66]: the “antitussive effect (number of coughs in 10 minutes)” value in assay [1] is “significant antitussive effect, which was better than that of the clinical control compound”. Also, the IC50 on P2X3 [2] is 26.2 nM; on P2X3 [3] it was 28.3 nM.
